The test system of test [1] is Escherichia coli isolate B. Briefly: Same-sample filtration AST, replicate treated and concurrent reference conditions (Example 3), isolate B. Format: cell-based. The settings on record: 1 μg/mL ETP, 60 minutes 37° C. As to the method:
Isolate A was susceptible to ertapenem, while isolate B was resistant. The inoculum was small enough that no detectable difference in the sample's optical density at 600 mm (OD600) was detectable before and after inoculation by an Ultrospec 10 spectrophotometer with an analytical sensitivity of 0.01 absorbance units. After an incubation at 37° C., the media became turbid with an OD600 of 0.5 absorbance units after about 2 hours of incubation.
To begin the AST protocol, 23.75 μL of the above 8 bacteria batch culture dilutions was twice added to and mixed with 1.25 μL of water containing either 20 μg/mL or 0 μg/mL of dissolved ertapenem (ETP) antibiotic. As a result, […] at 1 μg/mL were created, and 8 untreated reference conditions were created (see Table 2 below). The […] were incubated at 37° C. for 60 minutes.
After 60 minutes of incubation, the entire volume of each antibiotic exposure was transferred to an individual cellulose acetate filter unit with a 0.2 μm pore size. […]
50 μL of fresh MHB media was spun through the filters after the first centrifugation (above) to wash away residual extracellular nucleic acids present in the fluid wetting the filters. […] In this experiment, the wash fluid was collected and analyzed to learn more about the protocol, but this washing step is not necessary for determining susceptibility of the isolate. […]

Test [2] concerns carbapenem-resistant Escherichia coli isolate. Briefly: Digital same-sample filtration AST, one treated and one concurrent reference condition (Example 6). Format: cell-based. On the procedure: The inoculum was small enough that no detectable difference in the sample's optical density at 600 mm (OD600) was detectable by a spectrophotometer with a sensitivity of 0.01 absorbance units. The OD600 of the culture measured every 30 minutes after the culture was incubated at 37° C. to calculate the doubling time of the strain. The media became turbid with an OD600 of 0.28 absorbance units after 3.1 hours of incubation.
In this experiment, the number and volume of sample partitions was restricted, for logistical reasons, to 96 partitions 10 μL, in volume, specifically the wells of a 96-well plate. A goal was chosen of having a >98% chance of ending up with at least 48 empty partitions. When all partitions are the same volume, the following formula relates the expected number of empty partitions, the partition volume, and the density of cells.
N is the total number of partitions, n is the number of empty partitions, V is the partition volume, D is the density of cells, and t is a threshold probability chosen by the practitioner. Thus, in order to achieve digital sample partitioning with the available 96-well plate, the contrived clinical specimen was diluted to a cell density of 0.0375 cells/μL. Each 10 μL sample of the specimen would then contain 0.375 cells on average.
To begin the AST protocol, the contrived clinical sample was physically split into the 96 partitions by transferring 10 μL of the sample, in 96 separate transfers (actually 12 transfers with a multichannel pipette), to 96 wells of a microtiter plate. Each well contained 15 μL of Mueller-Hinton Broth (MHB) growth media. Half of the wells (48) contained 0 μg/mL of dissolved ETP antibiotic and served as reference condition antibiotic exposures. The other half of the wells contained 1.67 μg/mL of ETP (for a final concentration of 1.0 μg/mL) and served as 48 treated condition antibiotic exposures.
The 96 antibiotic exposures were incubated at 37° C. for 40 minutes.
The entire volume of each antibiotic exposure was transferred to a Millipore® 96-well sterile polystyrene MultiScreenHTS® filter plate (Millipore-Sigma MSGVS2210). Each well of the filter plate contained a hydrophilic polyvinylidene fluoride (PVDF) filter membrane with a 0.22 μm pore size. The antibiotic exposures were centrifuged at 2200 relative centrifugal force to speed the passage of the antibiotic exposure through the filter and into 96 collecting vessels. The collected fluid was called the “filtrate.” It is expected that the filtrate will contain all or most of the extracellular nucleic acids present in the antibiotic exposure, but none of the intracellular nucleic acids in the antibiotic exposure.
50 μL of fresh MHB media was spun through the filters after the first centrifugation (above) to wash away residual extracellular nucleic acids present in the fluid wetting the filters. This wash fluid is not collected with the filtrates.
10 μL of each of the filtrates was added to and mixed with 10 μL of Lucigen DNA Extraction Buffer, heated to 65° C. for 6 minutes, then heated to 98° C. for 4 minutes to create extracted filtrates.
20 μL of DNA Extraction Buffer was placed into all of the wells of the filter plate, on top of the filters. The filter plate was heated to 65° C. for 6 minutes, shaking at 700 rpm, on a ThermoMixer® flat surface heating block. Then, the filter plate was taped to a clean 96-well polypropylene microtiter plate and centrifuged at 2000 rcf for 2 minutes. The DNA Extraction Buffer fluid that flowed through the filter was collected in the microtiter plate below the filter plate. Next, the microtiter plate was heated to 98° C. for 4 minutes inside a BioRad thermocycler. These collected and heated fluid volumes are termed the “extracted lysate”. […]

The mark [3] stands for this setting: 1.0 μg/mL ETP, 40 minutes, assuming exponential division, doubling time approximately 30 minutes.
The mark [4] stands for this setting: 1.0 μg/mL ETP, 40 minutes, simple estimate.
Where [5] appears, read: Treated 1.0 μg ETP, 40 minutes 37° C., 48 partitions, ddPCR.

Consider `C[C@@H](O)[C@H]1C(=O)N2C(C(=O)O)=C(S[C@@H]3CN[C@H](C(=O)Nc4cccc(C(=O)O)c4)C3)[C@H](C)[C@H]12` [ETP, ertapenem], for which the “susceptibility call (threshold: reference mean + 2 SD of fraction extracellular)” value in test [1] (alternative analysis) is given as “resistant”. Also, the “susceptibility call (t-test treated vs untreated percent extracellular)” value in test [1] (ddPCR 23S rRNA) is given as “resistant”. In test [2] (1.0 μg/mL ETP, 40 minutes, alternative cell estimate, reference EINAPV 1/6), the “treated EINAPV (fraction extracellular), alternative estimate” value is listed as 1/7. For the same compound, in test [2] (setting [3]), the “intact cells in treated condition (alternative estimate)” value is 6 and the “killed cells in treated condition (alternative estimate)” value is 1. Moreover, the susceptibility call in test [2] (1.0 μg/mL ETP, 40 minutes, p-value vs 0.05 threshold) is listed as “resistant”. In test [2] (setting [4]), the “intact cells in treated condition at time of filtration (estimate)” value is 3 and the “killed cells in treated condition at time of filtration (estimate)” value was 1. Moreover, the “treated EINAPV (fraction extracellular)” value in test [2] (1.0 μg/mL ETP, 40 minutes, simple estimate, reference EINAPV 1/4) is 1/4. In addition, in test [2] (setting [5]), the “Both (number of wells)” value was determined as 0, the “Empty (number of wells)” value is listed as 44, the “Extracellular only (number of wells)” value is recorded as 1 and the “Intracellular only (number of wells)” value amounted to 3.
